Source: ChEMBL document CHEMBL2146467, “Generation and exploration of new classes of antitubercular agents: The optimization of oxazolines, oxazoles, thiazolines, thiazoles to imidazo[1,2-a]pyridines and isomeric 5,6-fused scaffolds” (Bioorg Med Chem, 2012)
≈ marks a conversion by molar mass, not a printed value.

System: Mycobacterium tuberculosis
Test: Antimycobacterial activity against Mycobacterium bovis BCG
Format: functional
Details: variant bovis BCG

Cc1ccn2c(C(=O)NCc3ccccc3)c(C)nc2c1
MIC: 0.3 µM (≈ 0.0838 µg/mL)
